{"source": "the supplement of paper PMC10307832", "experiment_in_all_cases": "relative viability (nuclei count vs DMSO), 5 days (fraction); higher = more cells survive", "key": {"[1]": {"tested_on": "NCI-H1666", "how_it_was_run": "(§1)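 Lung cancer cell lines were seeded in 1536-well plates and dosed by pin tool the next day, with either a single drug or a fixed anchor-drug dose combined with five library-drug doses (not always all listed) spaced in √10 steps. Five days later, one step fixed the cells and stained their nuclei (final 0.05% Triton X-100, 1% formaldehyde, 1 ug/ml Hoechst), and nuclei were counted on 4× images. Relative viability is the nuclei count in treated wells divided by the count in vehicle wells, and each value is the median of duplicate plates.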"}, "[2]": {"tested_on": "LOU-NH91", "how_it_was_run": "as §1"}, "[3]": {"tested_on": "NCI-H2347", "how_it_was_run": "as §1"}, "[4]": {"tested_on": "NCI-H23", "how_it_was_run": "as §1"}, "[5]": {"tested_on": "HCC-44", "how_it_was_run": "as §1"}, "[6]": {"tested_on": "BEN", "how_it_was_run": "as §1"}, "[7]": {"tested_on": "NCI-H2126", "how_it_was_run": "as §1"}, "[8]": {"tested_on": "NCI-H650", "how_it_was_run": "as §1"}, "[9]": {"tested_on": "NCI-H2087", "how_it_was_run": "as §1"}, "[10]": {"tested_on": "201T", "how_it_was_run": "as §1"}, "[11]": {"tested_on": "NCI-H2023", "how_it_was_run": "as §1"}, "[12]": {"tested_on": "LCLC-103H", "how_it_was_run": "as §1"}, "[13]": {"tested_on": "NCI-H2009", "how_it_was_run": "as §1"}, "[14]": {"tested_on": "HARA", "how_it_was_run": "as §1"}, "[15]": {"tested_on": "NCI-H1993", "how_it_was_run": "as §1"}, "[16]": {"tested_on": "NCI-H838", "how_it_was_run": "as §1"}, "[17]": {"tested_on": "NCI-H441", "how_it_was_run": "as §1"}, "[18]": {"tested_on": "NCI-H3122", "how_it_was_run": "as §1"}, "[19]": {"tested_on": "NCI-H647", "how_it_was_run": "as §1"}, "[20]": {"tested_on": "NCI-H727", "how_it_was_run": "as §1"}, "[21]": {"tested_on": "NCI-H596", "how_it_was_run": "as §1"}, "[22]": {"tested_on": "EMC-BAC-2", "how_it_was_run": "as §1"}}, "data": [{"smiles": "C[C@@H]1CN(CC(=O)Nc2ccc3c(c2)Cc2cccc(-c4cc(=O)cc(N5CCOCC5)o4)c2S3)C[C@H](C)O1", "note": "+ C[C@@H](Oc1cc(-c2cnn(C3CCNCC3)c2)cnc1N)c1c(Cl)ccc(F)c1Cl [Crizotinib] (partner 1 µM)", "values": [{"measurement": "relative viability", "setting": "[1]; first compound 0.04 µM", "result": 0.928}, {"measurement": "relative viability", "setting": "[1]; first compound 0.1265 µM", "result": 1.05}, {"measurement": "relative viability", "setting": "[1]; first compound 0.4 µM", "result": 1.11}, {"measurement": "relative viability", "setting": "[1]; first compound 4 µM", "result": 0.661}, {"measurement": "relative viability", "setting": "[2]; first compound 0.04 µM", "result": 0.764}, {"measurement": "relative viability", "setting": "[2]; first compound 0.1265 µM", "result": 0.752}, {"measurement": "relative viability", "setting": "[2]; first compound 0.4 µM", "result": 0.948}, {"measurement": "relative viability", "setting": "[2]; first compound 4 µM", "result": 0.72}, {"measurement": "relative viability", "setting": "[3]; first compound 0.04 µM", "result": 0.784}, {"measurement": "relative viability", "setting": "[3]; first compound 0.1265 µM", "result": 0.754}, {"measurement": "relative viability", "setting": "[3]; first compound 0.4 µM", "result": 0.735}, {"measurement": "relative viability", "setting": "[3]; first compound 4 µM", "result": 0.578}, {"measurement": "relative viability", "setting": "[4]; first compound 0.04 µM", "result": 0.521}, {"measurement": "relative viability", "setting": "[4]; first compound 0.1265 µM", "result": 0.487}, {"measurement": "relative viability", "setting": "[4]; first compound 0.4 µM", "result": 0.369}, {"measurement": "relative viability", "setting": "[4]; first compound 4 µM", "result": 0.487}, {"measurement": "relative viability", "setting": "[5]; first compound 0.04 µM", "result": 0.853}, {"measurement": "relative viability", "setting": "[5]; first compound 0.1265 µM", "result": 0.828}, {"measurement": "relative viability", "setting": "[5]; first compound 0.4 µM", "result": 0.699}, {"measurement": "relative viability", "setting": "[5]; first compound 4 µM", "result": 0.526}, {"measurement": "relative viability", "setting": "[6]; first compound 0.04 µM", "result": 0.812}, {"measurement": "relative viability", "setting": "[6]; first compound 0.1265 µM", "result": 0.82}, {"measurement": "relative viability", "setting": "[6]; first compound 0.4 µM", "result": 0.964}, {"measurement": "relative viability", "setting": "[6]; first compound 4 µM", "result": 0.95}, {"measurement": "relative viability", "setting": "[7]; first compound 0.04 µM", "result": 1.05}, {"measurement": "relative viability", "setting": "[7]; first compound 0.1265 µM", "result": 1.02}, {"measurement": "relative viability", "setting": "[7]; first compound 0.4 µM", "result": 1.05}, {"measurement": "relative viability", "setting": "[7]; first compound 4 µM", "result": 1.02}, {"measurement": "relative viability", "setting": "[8]; first compound 0.04 µM", "result": 0.433}, {"measurement": "relative viability", "setting": "[8]; first compound 0.1265 µM", "result": 0.753}, {"measurement": "relative viability", "setting": "[8]; first compound 0.4 µM", "result": 0.727}, {"measurement": "relative viability", "setting": "[8]; first compound 4 µM", "result": 0.602}, {"measurement": "relative viability", "setting": "[9]; first compound 0.04 µM", "result": 0.936}, {"measurement": "relative viability", "setting": "[9]; first compound 0.1265 µM", "result": 0.929}, {"measurement": "relative viability", "setting": "[9]; first compound 0.4 µM", "result": 0.895}, {"measurement": "relative viability", "setting": "[9]; first compound 4 µM", "result": 0.748}, {"measurement": "relative viability", "setting": "[10]; first compound 0.04 µM", "result": 1.05}, {"measurement": "relative viability", "setting": "[10]; first compound 0.1265 µM", "result": 0.98}, {"measurement": "relative viability", "setting": "[10]; first compound 0.4 µM", "result": 1.04}, {"measurement": "relative viability", "setting": "[10]; first compound 4 µM", "result": 0.971}, {"measurement": "relative viability", "setting": "[11]; first compound 0.04 µM", "result": 0.655}, {"measurement": "relative viability", "setting": "[11]; first compound 0.1265 µM", "result": 0.634}, {"measurement": "relative viability", "setting": "[11]; first compound 0.4 µM", "result": 0.664}, {"measurement": "relative viability", "setting": "[11]; first compound 4 µM", "result": 0.516}, {"measurement": "relative viability", "setting": "[12]; first compound 0.04 µM", "result": 1.08}, {"measurement": "relative viability", "setting": "[12]; first compound 0.1265 µM", "result": 1.03}, {"measurement": "relative viability", "setting": "[12]; first compound 0.4 µM", "result": 0.984}, {"measurement": "relative viability", "setting": "[12]; first compound 4 µM", "result": 1.03}, {"measurement": "relative viability", "setting": "[13]; first compound 0.04 µM", "result": 1.05}, {"measurement": "relative viability", "setting": "[13]; first compound 0.1265 µM", "result": 1.03}, {"measurement": "relative viability", "setting": "[13]; first compound 0.4 µM", "result": 1.09}, {"measurement": "relative viability", "setting": "[13]; first compound 4 µM", "result": 0.769}, {"measurement": "relative viability", "setting": "[14]; first compound 0.04 µM", "result": 0.697}, {"measurement": "relative viability", "setting": "[14]; first compound 0.1265 µM", "result": 0.96}, {"measurement": "relative viability", "setting": "[14]; first compound 0.4 µM", "result": 1.07}, {"measurement": "relative viability", "setting": "[14]; first compound 4 µM", "result": 0.988}, {"measurement": "relative viability", "setting": "[15]; first compound 0.04 µM", "result": 0.876}, {"measurement": "relative viability", "setting": "[15]; first compound 0.1265 µM", "result": 0.846}, {"measurement": "relative viability", "setting": "[15]; first compound 0.4 µM", "result": 0.661}, {"measurement": "relative viability", "setting": "[15]; first compound 4 µM", "result": 0.85}, {"measurement": "relative viability", "setting": "[16]; first compound 0.04 µM", "result": 0.886}, {"measurement": "relative viability", "setting": "[16]; first compound 0.1265 µM", "result": 0.77}, {"measurement": "relative viability", "setting": "[16]; first compound 0.4 µM", "result": 0.755}, {"measurement": "relative viability", "setting": "[16]; first compound 4 µM", "result": 0.616}, {"measurement": "relative viability", "setting": "[17]; first compound 0.04 µM", "result": 0.944}, {"measurement": "relative viability", "setting": "[17]; first compound 0.1265 µM", "result": 0.788}, {"measurement": "relative viability", "setting": "[17]; first compound 0.4 µM", "result": 0.707}, {"measurement": "relative viability", "setting": "[17]; first compound 4 µM", "result": 0.587}, {"measurement": "relative viability", "setting": "[18]; first compound 0.04 µM", "result": 0.349}, {"measurement": "relative viability", "setting": "[18]; first compound 0.1265 µM", "result": 0.324}, {"measurement": "relative viability", "setting": "[18]; first compound 0.4 µM", "result": 0.264}, {"measurement": "relative viability", "setting": "[18]; first compound 4 µM", "result": 0.282}, {"measurement": "relative viability", "setting": "[19]; first compound 0.04 µM", "result": 1.04}, {"measurement": "relative viability", "setting": "[19]; first compound 0.1265 µM", "result": 1.09}, {"measurement": "relative viability", "setting": "[19]; first compound 0.4 µM", "result": 1.09}, {"measurement": "relative viability", "setting": "[19]; first compound 4 µM", "result": 0.592}, {"measurement": "relative viability", "setting": "[20]; first compound 0.04 µM", "result": 0.891}, {"measurement": "relative viability", "setting": "[20]; first compound 0.1265 µM", "result": 0.746}, {"measurement": "relative viability", "setting": "[20]; first compound 0.4 µM", "result": 0.927}, {"measurement": "relative viability", "setting": "[20]; first compound 4 µM", "result": 0.624}, {"measurement": "relative viability", "setting": "[21]; first compound 0.04 µM", "result": 0.934}, {"measurement": "relative viability", "setting": "[21]; first compound 0.1265 µM", "result": 0.928}, {"measurement": "relative viability", "setting": "[21]; first compound 0.4 µM", "result": 0.983}, {"measurement": "relative viability", "setting": "[21]; first compound 4 µM", "result": 0.964}, {"measurement": "relative viability", "setting": "[22]; first compound 0.04 µM", "result": 0.57}, {"measurement": "relative viability", "setting": "[22]; first compound 0.1265 µM", "result": 0.761}, {"measurement": "relative viability", "setting": "[22]; first compound 0.4 µM", "result": 0.75}, {"measurement": "relative viability", "setting": "[22]; first compound 4 µM", "result": 0.819}]}]}
